Test results published in ChEMBL document CHEMBL3217746, “Edaravone containing isoindoline nitroxides for the potential treatment of cardiovascular ischaemia” (Medchemcomm, 2011).
One block for each compound: values may come before it. Activity calls are given as the source filed them. The calls are words filed in the database; no cut-off is given here.

Tests used:
[1] = system: H9c2; assay: Cardioprotective activity in rat H9c2 cells hypoxia-induced ischaemic model assessed as maximal decrease in cell death at 10 uM by propidium iodide exclusion assay; assay type: functional
[2] = system: H9c2; assay: Cardioprotective activity in rat H9c2 cells hypoxia-induced ischaemic model assessed as decrease in cell death at 1 to 100 uM by propidium iodide exclusion assay; assay type: functional, cell-based
[3] = system: H9c2; assay: Cardioprotective activity in rat H9c2 cells hypoxia-induced ischaemic model assessed as maximal decrease in cell death at 100 uM by propidium iodide exclusion assay; assay type: functional, cell-based
[4] = Peak plasma concentration in rat at 1.5 mg/kg, iv bolus dose; assay type: ADME, organism-based; parameters: dose 1.5 mg/kg, route intravenous
[5] = system: Rattus norvegicus; assay: Cardioprotective activity against iv dosed ischaemic brain injury rat model assessed as effective dose after 30 mins; assay type: functional

Compound: OC[C@H]1O[C@@H](n2cnc3c(NC4CCCC4)ncnc32)[C@H](O)[C@@H]1O [N6-CYCLOPENTYLADENOSINE]
inhibition at 10 µM [1]: 75.4%

Compound: CC1=NN(c2ccc3c(c2)C(C)(C)N([O])C3(C)C)C(=O)C1
inhibition [2]: Active | inhibition [3]: 85.5%

Compound: CON1C(C)(C)c2ccc(N3N=C(C)CC3=O)cc2C1(C)C
inhibition [2]: Active

Cmax [4]: 20 µM
Compound: CC1=NN(c2ccccc2)C(=O)C1 [EDARAVONE]
inhibition [2]: Active | ED [5]: 3 mg/kg
